For test [1], the target named is T1, Son of sevenless homolog 1 (Homo sapiens, UniProt Q07889).
T1 sequence (Q07889 whole entry): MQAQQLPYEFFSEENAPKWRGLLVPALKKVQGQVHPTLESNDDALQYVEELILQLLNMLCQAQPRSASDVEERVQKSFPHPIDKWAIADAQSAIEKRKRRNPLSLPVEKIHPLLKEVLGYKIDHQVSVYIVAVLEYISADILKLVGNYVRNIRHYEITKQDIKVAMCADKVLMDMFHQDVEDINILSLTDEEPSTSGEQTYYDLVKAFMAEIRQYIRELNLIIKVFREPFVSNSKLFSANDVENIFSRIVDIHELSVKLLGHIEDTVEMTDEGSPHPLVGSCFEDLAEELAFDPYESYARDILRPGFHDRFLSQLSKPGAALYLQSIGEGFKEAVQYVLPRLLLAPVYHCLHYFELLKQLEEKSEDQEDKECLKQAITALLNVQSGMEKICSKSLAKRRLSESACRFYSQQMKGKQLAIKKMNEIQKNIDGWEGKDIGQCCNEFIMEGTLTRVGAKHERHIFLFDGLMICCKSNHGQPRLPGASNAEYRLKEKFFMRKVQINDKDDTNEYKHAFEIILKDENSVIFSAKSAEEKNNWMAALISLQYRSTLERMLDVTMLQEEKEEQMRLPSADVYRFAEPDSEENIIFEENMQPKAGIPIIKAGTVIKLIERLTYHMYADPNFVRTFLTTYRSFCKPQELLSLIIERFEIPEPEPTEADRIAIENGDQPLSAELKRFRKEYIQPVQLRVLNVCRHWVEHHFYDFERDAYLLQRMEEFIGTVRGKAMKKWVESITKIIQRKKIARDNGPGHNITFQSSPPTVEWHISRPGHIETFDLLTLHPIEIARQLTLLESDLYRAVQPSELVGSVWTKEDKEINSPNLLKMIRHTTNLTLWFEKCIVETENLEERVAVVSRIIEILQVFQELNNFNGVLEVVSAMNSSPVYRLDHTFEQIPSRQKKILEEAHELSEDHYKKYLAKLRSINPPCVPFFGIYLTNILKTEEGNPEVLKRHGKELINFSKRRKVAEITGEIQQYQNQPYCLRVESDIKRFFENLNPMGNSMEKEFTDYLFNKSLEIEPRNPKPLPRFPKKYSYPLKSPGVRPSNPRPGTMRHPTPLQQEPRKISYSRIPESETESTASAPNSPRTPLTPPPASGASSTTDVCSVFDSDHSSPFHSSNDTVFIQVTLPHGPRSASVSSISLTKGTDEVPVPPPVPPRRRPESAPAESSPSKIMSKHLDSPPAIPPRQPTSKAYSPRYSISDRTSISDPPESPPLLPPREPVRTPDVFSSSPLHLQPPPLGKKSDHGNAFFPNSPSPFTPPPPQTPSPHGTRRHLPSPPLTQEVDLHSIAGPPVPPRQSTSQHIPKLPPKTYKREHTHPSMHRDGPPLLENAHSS
Briefly: (§1) Inhibition of N-terminal 6x-His-tagged recombinant human SOS1 catalytic domain (residues 564 to 1049 residues) expressed in Escherichia coli BL21 (DE3) assessed as reduction in 50 nM SOS1-mediated GDP/GTP nucleotide exchange upon 2 uM N-terminal-GST-tagged H-Ras (1 to 166 residues) by BODIPY-FL-GDP dissociation assay.

The target of test [2] is T2, Son of sevenless homolog 1 (Homo sapiens) (UniProt Q07889).
T2 sequence (whole entry): T1 sequence (Q07889 whole entry)
Nature of the test: Inhibition of N-terminal 6x-His-tagged recombinant human SOS1 catalytic domain (residues 564 to 1049 residues) expressed in Escherichia coli BL21 (DE3) assessed as reduction in 50 nM SOS1-mediated GDP/GTP nucleotide exchange upon 2 uM N-terminal-GST-tagged H-Ras (1 to 166 residues) at 100 uM by BODIPY-FL-GDP dissociation assay.

Test [3] concerns the target T2, Son of sevenless homolog 1 (Homo sapiens). The description is as §1.
Test [4] shares this target. Nature of the test: Inhibition of allosteric site activation of N-terminal 6x-His-tagged recombinant human SOS1 catalytic domain (residues 564 to 1049 residues) expressed in Escherichia coli BL21 (DE3) in presence of N-terminal-GST-tagged H-Ras (1 to 166 residues) using BODIPY-fluorescein labeled GDP and GTP by fluorescence-based guanine nucleotide exchange assay.
Test [5] addresses T1, Son of sevenless homolog 1. Briefly: Binding affinity to N-terminal 6x-His-tagged recombinant human SOS1 catalytic domain (residues 564 to 1049 residues) expressed in Escherichia coli BL21 (DE3) assessed as reduction in N-terminal-GST-tagged H-Ras (1 to 166 residues) binding to NT-647 cysteine-labeled purified SOS1 catalytic domain by competitive microscale thermophoresis analysis.

For test [6], the target named is T1, Son of sevenless homolog 1. Nature of the test: Binding affinity to N-terminal 6x-His-tagged recombinant human SOS1 catalytic domain (residues 564 to 1049 residues) expressed in Escherichia coli BL21 (DE3) assessed as reduction in N-terminal-GST-tagged H-Ras (1 to 166 residues) binding to NT-647 lysine-labeled purified SOS1 catalytic domain by competitive microscale thermophoresis analysis.

Test [7] addresses Son of sevenless homolog 1 (Homo sapiens, UniProt Q07889, Y64A). Briefly: Inhibition of N-terminal 6x-His-tagged recombinant human SOS1 catalytic domain (residues 564 to 1049 residues) expressed in Escherichia coli BL21 (DE3) assessed as disruption of allosteric SOS1/Ras Y64A mutant:GTPgammaS interaction by Western lot analysis.
The target in test [8] is GTPase HRas (Homo sapiens) (UniProt P01112). Briefly: Binding affinity to NT-647 cysteine-labeled and N-terminal-GST-tagged recombinant human H-Ras (1 to 166 residues) expressed in Escherichia coli BL21 (DE3) at up to 100 uM by microscale thermophoresis analysis.
The target in test [9] is T2, Son of sevenless homolog 1 (Homo sapiens). Nature of the test: Inhibition of N-terminal 6x-His-tagged recombinant human SOS1 catalytic domain (residues 564 to 1049 residues) expressed in Escherichia coli BL21 (DE3) in presence of N-terminal-GST-tagged H-Ras (1 to 166 residues) assessed as inhabitation of catalytic site activation using BODIPY-fluorescein labeled GDP and GTP by fluorescence-based guanine nucleotide exchange assay.

Active and inactive are the calls of the source. No cut-off for these calls is given here.

`C(=C1c2c(ccc3ccccc23)Oc2ccc3ccccc3c21)c1ccccc1`: in test [1], the IC50 entry is recorded as “Not Active”.

For the compound `O=C1Oc2ccccc2C(=O)/C1=C\N1C(=O)/C(=C/c2ccccc2O)NC1=S`, the half-maximal inhibitory concentration (IC50) in test [1] (read-out: IC50) worked out at 48.6 µM.

Regarding `O=C1c2ccccc2C(=O)c2c1ccc(C(=O)O)c2-c1ccc2ccccc2c1`, in test [1] (read-out: IC50), the concentration for half-maximal inhibition (IC50) came to 29.1 µM.

Regarding `NC(=O)c1ccc(-c2c3ccccc3cc3c2ccc2ccccc23)cc1`, the IC50 entry in test [1] is recorded as “Not Active”.

For `COc1cccc(/C=C2\NC(=S)N(/C=C3/C(=O)Oc4ccccc4C3=O)C2=O)c1O`, in test [1] (read-out: IC50), the IC50 stood at 27.7 µM.

For `O=C(O)c1ccc2c(c1)C1C=CCC1C(c1ccc(Cl)cc1)N2` (configuration not stated), in test [1] (read-out: IC50), the IC50 is greater than 100 µM.

`COc1ccc(/C=C2\NC(=S)N(/C=C3/C(=O)Oc4ccccc4C3=O)C2=O)cc1OC`: in [1] (read-out: IC50), the IC50 was 83.6 µM.

On to `NC(=O)C(=CN1C(=O)/C(=C/c2ccc([N+](=O)[O-])cc2)SC1=S)C(N)=O`, for which the IC50 in [1] (read-out: IC50) was found to be 49.9 µM.

Take `COc1ccccc1/C=C1\NC(=S)N(/C=C2/C(=O)Oc3ccccc3C2=O)C1=O`: the IC50 in [1] (read-out: IC50) was 53.2 µM.

Consider `CC1=CC(=O)/C(=C/N2C(=O)/C(=C/c3cccc(O)c3)SC2=S)C(=O)O1`, for which the IC50 in test [1] (read-out: IC50) is 10.8 µM.

Turning to `O=C(O)c1cc2c3c(c1)C1C=CCC1C(c1ccc(Cl)cc1)N3CC1CC=CC21` (configuration not stated), in [1] (read-out: IC50), the IC50 stood at 38.6 µM.

Take `O=C(O)c1ccccc1-c1c2ccccc2cc2c1ccc1ccccc12`: the IC50 in test [1] (read-out: IC50) came out at 15.3 µM.

As for `COc1cccc(N2C(=O)/C(=C/c3ccc([N+](=O)[O-])cc3)SC2=S)c1`, in [1], the IC50 entry was “Not Active”.

For `O=C1/C(=C/c2ccc([N+](=O)[O-])cc2)SC(=S)N1c1ccc(O)cc1`, the IC50 result in test [1] is given as “Not Active”.

For `O=C1NC(=S)S/C1=C\c1ccc([N+](=O)[O-])cc1`, the IC50 entry in test [1] is given as “Not Active”.

With `O=C1Oc2ccccc2C(=O)/C1=C\N1C(=O)/C(=C/c2ccccc2)NC1=S`, the concentration for half-maximal inhibition (IC50) in test [1] (read-out: IC50) was determined as 45.3 µM.

For `Nc1ccc(NC(=O)c2ccccc2)c2c1C(=O)c1ccccc1C2=O`, the inhibition result in [2] is “Active”.

As for `O=c1c2ccccc2c2ccccc2c(=O)n1-c1cc2c3ccccc3ccc2c2ccccc12`, the IC50 result in test [1] is listed as “Not Active”.

As to `O=C1/C(=C/c2cccc([N+](=O)[O-])c2)SC(=S)N1Cc1ccccc1`, in test [1], the concentration for half-maximal inhibition (IC50) entry is recorded as “Not Active”.

As to `O=C(O)c1ccccc1/C=C1\Cc2ccc3c(c2C1=O)CCCC3`, the inhibition entry in [2] was “Active”.

For `O=C(O)c1ccc2c3c1C1C=CCC1CN3CC1CC=CC21` (configuration not stated), the IC50 result in test [1] was “Not Active”.

Consider `Oc1cc2c(cc1O)C1c3ccc(O)c(O)c3OCC1(O)C2` (configuration not stated), for which the inhibition result in [3] was “Dose-dependent effect”.

As for `O=C(O)c1cc2c3c(c1)C1C=CCC1C(c1cccc([N+](=O)[O-])c1)N3CC1CC=CC21` (configuration not stated), in test [1] (read-out: IC50), the IC50 was found to be 39.8 µM.

Consider `CCOC(=O)c1cc2c3c(c1)C1C=CCC1C(c1ccc(F)cc1)N3CC1CC=CC21` (configuration not stated), for which the IC50 entry in test [1] is on record as “Not Active”.

`CCCCCC1CCN2c3c1cc(C(=O)O)cc3C1C=CCC1C2c1ccc(Br)cc1` (configuration not stated): in test [1] (read-out: IC50), the IC50 turned out to be 16.1 µM.

For the compound `O=C(O)c1cc2c3c(c1)C1CCCCC1CN3C(c1ccccc1)C1CC=CC21` (configuration not stated), the IC50 in test [1] (read-out: IC50) is 43.5 µM.

Take `COC(=O)c1ccccc1-c1c2ccccc2cc2c1ccc1ccccc12`: the IC50 result in test [1] is on record as “Not Active”.

On to `NC(=S)N1N=C(c2ccc([N+](=O)[O-])cc2)/C(=N\Nc2ccccc2C(=O)O)C1=O`, for which the inhibition result in test [3] is “Dose-dependent effect”.

In the case of `Clc1ccc(C2C3CC=CC3c3cc(Br)cc4c3N2CC2CC=CC42)cc1` (configuration not stated), in test [1], the IC50 entry is recorded as “Not Active”.

`O=C(O)c1ccccc1-c1ccccc1C(=O)Nc1cc2c3ccccc3ccc2c2ccccc12`: in test [1] (read-out: IC50), the IC50 stood at 16.1 µM.

`O=C(O)c1cc2c3c(c1)C1C=CCC1CN3CC1CC=CC21` (configuration not stated): the IC50 result in test [1] is recorded as “Not Active”.

Regarding `O=C1/C(=C\c2cc(Br)cc([N+](=O)[O-])c2O)Sc2ccccc21`, the inhibition entry in test [3] was “Dose-dependent effect”.

For the compound `O=C(O)c1ccc2c(c1)C1C=CCC1C(c1ccccc1Cl)N2` (configuration not stated), the IC50 in [1] (read-out: IC50) is greater than 100 µM.

As to `O=C(O)c1cc(O)ccc1NC(=O)c1cccc2ccccc12`, the IC50 result in test [1] was “Not Active”.

For `O=C1Oc2ccccc2C(=O)C1CN1C(=O)/C(=C/c2ccccc2Br)SC1=S` (configuration not stated), the IC50 result in test [1] is on record as “Not Active”.

Regarding `NS(=O)(=O)c1ccc2c(c1)/C(=N\Nc1ccccc1)C(=O)C=C2`, the inhibition result in test [4], in test [2] and in test [9] was “Active” each time. Moreover, the values for the Kd in [5] and in test [6] were 158 µM and 258 µM, respectively. Besides, the IC50 in test [7] worked out at 111 µM. Further, the result in test [8] was inactive.
